Assay results published in patent publication US20170158702A1, “MULTIVALENT RAS BINDING COMPOUNDS” (KYRAS THERAPEUTICS, INC., priority 2015, published 2017).
Counter-ions that a name gives are not always drawn.

Legend:
Format in all cases: cell-based
NCI-H460 = assay: Viability assay with NCI-H460 (CellTiter-Glo cytotoxicity assay, 72 h); conditions: NCI-H460 cell line, 72 h after compounds addition
Outline: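 NCI-H460 cells, RPMI 1640 + 10% FBS, seeded 1200/well and adhered overnight, then exposed to compounds at 9 points, 2-fold dilution, in triplicate, 0.5% DMSO final. Cellular ATP measured by CellTiter-Glo luminescence 72 h after addition.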

MIA PaCa-2 = assay: Viability assay with MIA PaCa-2; conditions: MIA PaCa-2, viability assay per Example 57
Outline: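 MIA PaCa-2 cells were seeded at 1200/well, allowed to adhere overnight, then treated in triplicate with 9-point 2-fold compound dilutions at 0.5% final DMSO. Viability was measured as cellular ATP by CellTiter-Glo luminescence 72 h after compound addition.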

U2OS = assay: Viability assay with U2OS; conditions: viability assay per Example 57
Description: (§1) NCI-H460 (Epithelial lung tissue; carcinoma; large cell lung cancer) were cultured in RPMI Medium 1640 (Invitrogen-22400105) supplemented with 10% fetal bovine serum (FBS; Invitrogen-10099141). All the cell lines were maintained in a humidified incubator at 37° C. with 5% CO2. Cell culture media and supplements were purchased from Invitrogen, and tissue culture flasks were purchased from Corning, 96-well plates were purchased from Greiner. CellTiter-Glo Luminescent Cell Viability Assay kits were purchased from Promega (Promega-G7573), cells counter Vi-Cell was purchased from Beckman, D300e digital dispenser was purchased from Tecan, detection instrument Envision was purchased from PerkinElmer.
(§2) Paclitaxel was purchased from SELLECK, test compounds, such as any one of the compounds disclosed herein, attained solubility in DMSO and when diluted into culture media. DMSO, solutions containing the test compounds, and culture media were warmed to 37° C. or room temperature for the solution preparation and dilutions.
(§3) NCI-H460 Cell line were seeded in 96-well plates (1200/well) and allowed to adhere to overnight (100 uL/well), for drug treatments with 2 fold dilution, 9 dose points, triplicates or vehicle control, compound stock solutions were prepared in DMSO and use D300e digital dispenser to add compounds to the wells to give the indicated final drug concentrations. Final DMSO concentration was 0.5%. Cellular ATP concentrations were assessed by using the CellTiter-Glo Cell Viability Assay as per the manufacturer's instructions 72 h after compounds addition. Additional cells lines were assayed with any one of the compounds disclosed herein according to the procedures described for the viability assay with NCI-H460.
The viability assay with U2OS (epithelial bone tissue; osteosarcoma) was performed with compounds listed in Table 17 according to the procedures described in Example 57.

NCI-H2023 = assay: Viability assay with NCI-H2023; conditions: NCI-H2023, viability assay per Example 57
Description: as §1, §2, §3
A viability assay with NCI-H2023 (stage 3A, adenocarcinoma; non-small cell lung cancer) was performed with compounds listed in Table 16 according to the procedures described in Example 57.

Row | SMILES | EC50 (NCI-H460) [µM] | EC50 (MIA PaCa-2) [µM] | EC50 (U2OS) [µM] | EC50 (NCI-H2023) [µM] | EC50 (NCI-H460; Homo sapiens) [µM] | EC50 (MIA PaCa-2; Homo sapiens) [µM]
1 | NCCCn1cc(-c2ccc(OC(F)(F)F)cc2)c2cc(CN3CCN(Cc4cccc(Cl)c4)CC3)ccc21 [C9; HCl] | ≤ 5 | ≤ 5 | ≤ 5 |  |  | 
2 | NCCCn1cc(-c2ccc(OC(F)(F)F)cc2)c2cc(CC3CCN(Cc4ccccc4Cl)CC3)ccc21 [C159; HCl] | ≤ 5 | ≤ 5 | ≤ 5 |  |  | 
3 | CN(CCNCc1ccc2c(c1)c(-c1ccc(OC(F)(F)F)cc1)cn2CCCN)Cc1ccccc1Cl [C173; HCl] | ≤ 5 | ≤ 5 | ≤ 5 |  |  | 
4 | NCCCn1cc(-c2ccc(OC(F)(F)F)cc2)c2cc(CN3CCN(CC(F)(F)F)CC3)ccc21 [C160; HCl] | ≤ 5 | ≤ 5 | ≤ 5 |  |  | 
5 | Cc1cccc(C)c1CN1CCN(Cc2ccc3c(c2)c(-c2ccc(OC(F)(F)F)cc2)cn3CCCNC(=O)C2(N)CCNCC2)CC1 [C54; HCl] | ≤ 5 | ≤ 5 |  | ≤ 5 |  | 
6 | NCCCn1cc(-c2ccc(OC(F)(F)F)cc2)c2cc(CN3CCN(Cc4cccc(C(F)(F)F)c4Cl)CC3)ccc21 [C155; HCl] | ≤ 5 | ≤ 5 | ≤ 5 |  |  | 
7 | NCCCn1cc(-c2ccc(F)cc2)c2cc(CN3CCN(Cc4c(Cl)cccc4Cl)CC3)ccc21 [C23; Formic acid] | ≤ 5 | ≤ 5 |  | ≤ 5 |  | 
8 | NC1(C(=O)NCCCn2cc(-c3ccc(O)cc3)c3cc(CN4CCN(Cc5c(Cl)cccc5Cl)CC4)ccc32)CCNCC1 [C36; HCl] | > 30 | 10 to 30 |  | > 30 |  | 
9 | OCCNCCCn1cc(-c2ccc(OC(F)(F)F)cc2)c2cc(CN3CCN(Cc4c(Cl)cccc4Cl)CC3)ccc21 [Compound C20, 2-(3-(5-((4-(2,6-dichlorobenzyl)piperazin-1-yl)methyl)-3-(4-(trifluoromethoxy)phenyl)-1H-indol-1-yl)propylamino)ethanol] |  |  |  | ≤ 5 | ≤ 5 | ≤ 5
10 | CNCCCn1cc(-c2ccc(OC(F)(F)F)cc2)c2cc(CN3CCN(Cc4c(Cl)cccc4Cl)CC3)ccc21 [C21; Formic acid] | ≤ 5 | ≤ 5 |  | ≤ 5 |  | 
11 | NC1(C(=O)NCCCn2cc(-c3ccc(OC(F)(F)F)cc3)c3cc(CN4CCNCC4)ccc32)CCNCC1 [C48; HCl] | > 30 | > 30 |  | > 30 |  | 
12 | NC1(C(=O)NCCCn2cc(-c3ccc(OC(F)(F)F)cc3)c3cc(CN4CCN(Cc5c(F)cccc5F)CC4)ccc32)CCNCC1 [C55; HCl] | ≤ 5 | ≤ 5 |  | ≤ 5 |  | 
13 | NCC(=O)NCCCn1cc(-c2ccc(OC(F)(F)F)cc2)c2cc(CN3CCN(Cc4c(Cl)cccc4Cl)CC3)ccc21 [C52; HCl] | ≤ 5 | ≤ 5 |  | ≤ 5 |  | 
14 | NCCCn1cc(-c2ccc(OC(F)(F)F)cc2)c2cc(CN3CCN(S(=O)(=O)c4ccccc4Cl)CC3)ccc21 [C14; HCl] | ≤ 5 | ≤ 5 |  | ≤ 5 |  | 
15 | NCCCn1cc(-c2ccc(O)cc2)c2cc(CN3CCN(Cc4c(Cl)cccc4Cl)CC3)ccc21 [C44; HCl] | ≤ 5 | ≤ 5 |  | ≤ 5 |  | 
16 | NCCCn1cc(-c2ccc(N)nc2)c2cc(CN3CCN(Cc4c(Cl)cccc4Cl)CC3)ccc21 [C18; HCl] | ≤ 5 | ≤ 5 |  | ≤ 5 |  | 
17 | NC1(C(=O)NCCCn2cc(-c3ccc(OC(F)(F)F)cc3)c3cc(CN4CCN(Cc5c(Cl)cccc5Cl)CC4)ccc32)CCNCC1 [C41; Trifluoroacetic acid] | ≤ 5 | ≤ 5 |  | ≤ 5 |  | 
18 | NC1(C(=O)NCCCCn2cc(-c3ccc(OC(F)(F)F)cc3)c3cc(CN4CCN(Cc5c(Cl)cccc5Cl)CC4)ccc32)CCNCC1 [C35; HCl] | ≤ 5 | ≤ 5 |  | ≤ 5 |  | 
19 | Cc1ccc(-c2cn(CCCNC(=O)C3(N)CCNCC3)c3ccc(CN4CCN(Cc5c(Cl)cccc5Cl)CC4)cc23)cc1 [C39; HCl] | ≤ 5 | ≤ 5 |  | ≤ 5 |  | 
20 | CC(=O)NCCCn1cc(-c2ccc(OC(F)(F)F)cc2)c2cc(CN3CCN(Cc4c(Cl)cccc4Cl)CC3)ccc21 [C47; Formic acid] | ≤ 5 | ≤ 5 |  | ≤ 5 |  | 

Row | SMILES | EC50 (NCI-H460) [µM] | EC50 (MIA PaCa-2) [µM] | EC50 (U2OS) [µM] | EC50 (NCI-H2023) [µM] | EC50 (NCI-H460; Homo sapiens) [µM] | EC50 (MIA PaCa-2; Homo sapiens) [µM]
21 | NCCCn1cc(-c2ccc(OC(F)(F)F)cc2)c2cc(CN3CC4CCC(C3)N4Cc3c(Cl)cccc3Cl)ccc21 [C32; HCl] | ≤ 5 | ≤ 5 |  | ≤ 5 |  | 
22 | NC1(C(=O)NCCCn2cc(-c3ccc(OC(F)(F)F)cc3)c3cc(CN4CCN(c5ccccc5)CC4)ccc32)CCNCC1 [C38; HCl] | ≤ 5 | ≤ 5 |  | ≤ 5 |  | 
23 | CNCc1ccc2c(c1)c(-c1ccc(OC(F)(F)F)cc1)cn2CCCNC(=O)C1(N)CCNCC1 [C16; HCl] | > 30 | > 30 |  | > 30 |  | 
24 | CCOC(=O)CNCCCn1cc(-c2ccc(OC(F)(F)F)cc2)c2cc(CN3CCN(Cc4c(Cl)cccc4Cl)CC3)ccc21 [Compound C28, ethyl 2-(3-(5-((4-(2,6-dichlorobenzyl)piperazin-1-yl)methyl)-3-(4-(trifluoromethoxy)phenyl)-1H-indol-1-yl)propylamino)acetate] |  |  |  | 5 to 10 | 5 to 10 | ≤ 5
25 | CC(C)(N)C(=O)NCCCn1cc(-c2ccc(OC(F)(F)F)cc2)c2cc(CN3CCN(Cc4c(Cl)cccc4Cl)CC3)ccc21 [C46; HCl] | ≤ 5 | ≤ 5 |  | ≤ 5 |  | 
26 | CN(C)Cc1ccc2c(c1)c(-c1ccc(OC(F)(F)F)cc1)cn2CCCNC(=O)C1(N)CCNCC1 [C29; HCl] | 10 to 30 | > 30 |  | 10 to 30 |  | 
27 | N#Cc1cccc(-c2cn(CCCN)c3ccc(CN4CCN(Cc5c(Cl)cccc5Cl)CC4)cc23)c1 [C13; HCl] | ≤ 5 | ≤ 5 |  | ≤ 5 |  | 
28 | NCCCn1cc(-c2ccc(OC(F)(F)F)cc2)c2cc(CN3CCN(Cc4cccc(F)c4Cl)CC3)ccc21 [C19; HCl] | ≤ 5 | ≤ 5 |  | ≤ 5 |  | 
29 | COc1cccc(OC)c1CN1CCN(Cc2ccc3c(c2)c(-c2ccc(OC(F)(F)F)cc2)cn3CCCNC(=O)C2(N)CCNCC2)CC1 [C49; HCl] | 5 to 10 | 5 to 10 |  | 5 to 10 |  | 
30 | NCCCn1cc(-c2ccc(N)cc2)c2cc(CN3CCN(Cc4c(Cl)cccc4Cl)CC3)ccc21 [C50; HCl] | ≤ 5 | ≤ 5 |  | ≤ 5 |  | 
31 | N[C@H]1CC[C@H](n2cc(-c3ccc(OC(F)(F)F)cc3)c3cc(CN4CCN(Cc5c(Cl)cccc5Cl)CC4)ccc32)C1 [C42; HCl] | ≤ 5 | ≤ 5 |  | ≤ 5 |  | 
32 | NC1CCC(c2cn(-c3ccc(OC(F)(F)F)cc3)c3cc(CN4CCN(Cc5c(Cl)cccc5Cl)CC4)ccc23)C1 (stereo not drawn) [C30; HCl] | ≤ 5 | ≤ 5 |  | ≤ 5 |  | 
33 | N#Cc1ccc(-c2cn(CCCNC(=O)C3(N)CCNCC3)c3ccc(CN4CCN(Cc5c(Cl)cccc5Cl)CC4)cc23)cc1 [C40; HCl] | ≤ 5 | ≤ 5 |  | ≤ 5 |  | 
34 | NCCCn1cc(-c2ccccc2)c2cc(CN3CCN(Cc4c(Cl)cccc4Cl)CC3)ccc21 [C37; HCl] | ≤ 5 | 5 to 10 |  | 5 to 10 |  | 
35 | NC1(C(=O)NCCCn2cc(-c3ccccc3)c3cc(CN4CCN(Cc5c(Cl)cccc5Cl)CC4)ccc32)CCNCC1 [C24; HCl] | ≤ 5 | ≤ 5 |  | ≤ 5 |  | 
36 | NCCCn1cc(-c2ccc(OC(F)(F)F)cc2)c2cc(CN3CC4CCC(C3)N4Cc3ccccc3Cl)ccc21 [C17; HCl] | ≤ 5 | ≤ 5 |  | ≤ 5 |  | 
37 | CC(C)N1CCN(Cc2ccc3c(c2)c(-c2ccc(OC(F)(F)F)cc2)cn3CCCNC(=O)C2(N)CCNCC2)CC1 [C34; HCl] | 10 to 30 | 10 to 30 |  | 10 to 30 |  | 
38 | NCCCn1cc(-c2ccc(OC(F)(F)F)cc2)c2cc(CN3CCN(C(=O)c4ccccc4Cl)CC3)ccc21 [C15; HCl] | ≤ 5 | ≤ 5 |  | ≤ 5 |  | 
39 | CCN1CCN(Cc2ccc3c(c2)c(-c2ccc(OC(F)(F)F)cc2)cn3CCCNC(=O)C2(N)CCNCC2)CC1 [C27; HCl] | > 30 | 10 to 30 |  | 10 to 30 |  | 
40 | NC1(C(=O)NCCCn2cc(-c3ccc(OC(F)(F)F)cc3)c3cc(CN4C5CCC4CN(Cc4c(Cl)cccc4Cl)C5)ccc32)CCNCC1 [C56; HCl] | ≤ 5 | ≤ 5 |  | ≤ 5 |  | 
